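Briefly, cells in 96-well plates were exposed to five compound concentrations for 48 h, and endpoints were estimated by linear interpolation. GI50 = concentration required for 50% inhibition of growth.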 Active and inactive are the calls of the source. No stated cut-off is given here; in the data, active = GI50 up to about 1.1 µM and inactive = higher.
Tests used:
Test in all cases: NCI-60 cell line screen, 48 h
786-0 = system: 786-0
A549 = system: A549
ACHN = system: ACHN
COLO 205 = system: COLO 205
DMS-114 = system: DMS-114
DMS-273 = system: DMS-273
HCT-15 = system: HCT-15
HL-60 = system: HL-60
HT-29 = system: HT-29
IGROV-1 = system: IGROV-1
KM-20L2 = system: KM-20L2
LOX IMVI = system: LOX IMVI
LXFL 529 = system: LXFL 529
M14 = system: M14
M19-MEL = system: M19-MEL
MOLT-4 = system: MOLT-4
NCI-H23 = system: NCI-H23
NCI-H460 = system: NCI-H460
NCI-H522 = system: NCI-H522
OVCAR-3 = system: OVCAR-3
OVCAR-5 = system: OVCAR-5
OVCAR-8 = system: OVCAR-8
RPMI-8226 = system: RPMI-8226
RXF 393 = system: RXF 393
SK-MEL-28 = system: SK-MEL-28
SK-MEL-5 = system: SK-MEL-5
SK-OV-3 = system: SK-OV-3
SN12C = system: SN12C
SNB-75 = system: SNB-75
SR = system: SR
TK-10 = system: TK-10
UACC-257 = system: UACC-257
UACC-62 = system: UACC-62
A498 = system: A498
BT-549 = system: BT-549
CAKI-1 = system: CAKI-1
CCRF-CEM = system: CCRF-CEM
DU-145 = system: DU-145
EKVX = system: EKVX
HCC 2998 = system: HCC 2998
HCT-116 = system: HCT-116
HOP-62 = system: HOP-62
HOP-92 = system: HOP-92
Hs-578T = system: Hs-578T
K562 = system: K562
KM12 = system: KM12
MCF7 = system: MCF7
MDA-MB-231 = system: MDA-MB-231
MDA-MB-435 = system: MDA-MB-435
MDA-N = system: MDA-N
Malme-3M = system: Malme-3M
NCI-H226 = system: NCI-H226
NCI/ADR-RES = system: NCI/ADR-RES
OVCAR-4 = system: OVCAR-4
PC-3 = system: PC-3
SF-268 = system: SF-268
SF-295 = system: SF-295
SF-539 = system: SF-539
SK-MEL-2 = system: SK-MEL-2
SNB-19 = system: SNB-19
SW-620 = system: SW-620
T47D = system: T47D
U-251 = system: U-251
UO-31 = system: UO-31
DLD-1 = system: DLD-1
HOP-18 = system: HOP-18
SNB-78 = system: SNB-78

CC1=C[P+](Cc2ccccc2)(c2ccccc2)CC1 (centres undefined)
GI50 (786-0): > 100 µM (inactive)
GI50 (A549): > 100 µM (inactive)
GI50 (ACHN): > 100 µM (inactive)
GI50 (COLO 205): 41.5 µM (inactive)
GI50 (DMS-114): 35.2 µM (inactive)
GI50 (DMS-273): > 100 µM (inactive)
GI50 (HCT-15): 88.1 µM
GI50 (HL-60): 36.3 µM (inactive)
GI50 (HT-29): 77.3 µM (inactive)
GI50 (IGROV-1): 96.8 µM (inactive)
GI50 (KM-20L2): 94.2 µM (inactive)
GI50 (LOX IMVI): > 100 µM (inactive)
GI50 (LXFL 529): 23.3 µM (inactive)
GI50 (M14): 77.6 µM (inactive)
GI50 (M19-MEL): 29.9 µM (inactive)
GI50 (MOLT-4): > 100 µM (inactive)
GI50 (NCI-H23): > 100 µM (inactive)
GI50 (NCI-H460): > 100 µM (inactive)
GI50 (NCI-H522): 65.2 µM (inactive)
GI50 (OVCAR-3): 47.8 µM (inactive)
GI50 (OVCAR-5): > 100 µM (inactive)
GI50 (OVCAR-8): > 100 µM (inactive)
GI50 (RPMI-8226): 28.6 µM (inactive)
GI50 (RXF 393): > 100 µM (inactive)
GI50 (SK-MEL-28): 81.1 µM (inactive)
GI50 (SK-MEL-5): 27 µM (inactive)
GI50 (SK-OV-3): > 100 µM (inactive)
GI50 (SN12C): > 100 µM (inactive)
GI50 (SNB-75): > 100 µM (inactive)
GI50 (SR): 57 µM (inactive)
GI50 (TK-10): 98.9 µM (inactive)
GI50 (UACC-257): 21.5 µM (inactive)
GI50 (UACC-62): 66.5 µM (inactive)

O=C1C(N2CCOCC2)=C(Cl)C(=O)c2ncccc21
GI50 (786-0): 1.84 µM (inactive)
GI50 (A498): 8.32 µM (inactive)
GI50 (A549): > 10 µM (inactive)
GI50 (ACHN): 1.85 µM (inactive)
GI50 (BT-549): > 10 µM (inactive)
GI50 (CAKI-1): > 10 µM (inactive)
GI50 (CCRF-CEM): 0.524 µM (active)
GI50 (COLO 205): 2.24 µM (inactive)
GI50 (DU-145): > 6.73 µM (inactive)
GI50 (EKVX): > 10 µM (inactive)
GI50 (HCC 2998): > 6 µM (inactive)
GI50 (HCT-116): 1.71 µM (inactive)
GI50 (HCT-15): 2.03 µM
GI50 (HL-60): 0.212 µM (active)
GI50 (HOP-62): > 10 µM (inactive)
GI50 (HOP-92): 1.5 µM (inactive)
GI50 (HT-29): > 7.89 µM (inactive)
GI50 (Hs-578T): 3.99 µM (inactive)
GI50 (IGROV-1): > 8.53 µM (inactive)
GI50 (K562): 1.39 µM (inactive)
GI50 (KM12): > 3.84 µM (inactive)
GI50 (LOX IMVI): 1.94 µM (inactive)
GI50 (M14): 2.37 µM (inactive)
GI50 (MCF7): 1.81 µM (inactive)
GI50 (MDA-MB-231): 2.49 µM (inactive)
GI50 (MDA-MB-435): 1.73 µM (inactive)
GI50 (MDA-N): 1.97 µM (inactive)
GI50 (MOLT-4): 0.443 µM (active)
GI50 (Malme-3M): 1.89 µM (inactive)
GI50 (NCI-H226): > 6.25 µM (inactive)
GI50 (NCI-H23): 1.6 µM (inactive)
GI50 (NCI-H460): > 6.79 µM (inactive)
GI50 (NCI-H522): 1.45 µM (inactive)
GI50 (NCI/ADR-RES): 8.49 µM (inactive)
GI50 (OVCAR-3): 1.81 µM (inactive)
GI50 (OVCAR-4): 1.56 µM (inactive)
GI50 (OVCAR-5): > 10 µM (inactive)
GI50 (OVCAR-8): 2.61 µM (inactive)
GI50 (PC-3): > 9.62 µM (inactive)
GI50 (RPMI-8226): 1.56 µM (inactive)
GI50 (RXF 393): 1.55 µM (inactive)
GI50 (SF-268): 2.9 µM (inactive)
GI50 (SF-295): > 10 µM (inactive)
GI50 (SF-539): 4.89 µM (inactive)
GI50 (SK-MEL-28): 2.2 µM (inactive)
GI50 (SK-MEL-2): 1.87 µM (inactive)
GI50 (SK-MEL-5): 1.82 µM (inactive)
GI50 (SK-OV-3): > 10 µM (inactive)
GI50 (SN12C): 1.75 µM (inactive)
GI50 (SNB-19): > 10 µM (inactive)
GI50 (SNB-75): > 10 µM (inactive)
GI50 (SR): 0.778 µM (active)
GI50 (SW-620): 1.87 µM (inactive)
GI50 (T47D): 1.99 µM (inactive)
GI50 (TK-10): 1.98 µM (inactive)
GI50 (U-251): 5.71 µM (inactive)
GI50 (UACC-257): 1.73 µM (inactive)
GI50 (UACC-62): 2.33 µM (inactive)
GI50 (UO-31): 4.23 µM (inactive)

Cc1[nH]nc2c1C(=O)C=C(N(CCO)c1ccccc1)C2=O
GI50 (786-0): > 100 µM (inactive)
GI50 (A549): > 100 µM (inactive)
GI50 (CAKI-1): > 100 µM (inactive)
GI50 (CCRF-CEM): > 100 µM (inactive)
GI50 (COLO 205): > 100 µM (inactive)
GI50 (DLD-1): > 100 µM (inactive)
GI50 (DMS-114): > 100 µM (inactive)
GI50 (DMS-273): > 100 µM (inactive)
GI50 (EKVX): > 100 µM (inactive)
GI50 (HCC 2998): > 100 µM (inactive)
GI50 (HCT-116): > 100 µM (inactive)
GI50 (HCT-15): > 100 µM
GI50 (HL-60): > 100 µM (inactive)
GI50 (HOP-18): > 100 µM (inactive)
GI50 (HOP-92): > 100 µM (inactive)
GI50 (HT-29): > 100 µM (inactive)
GI50 (IGROV-1): > 100 µM (inactive)
GI50 (K562): > 100 µM (inactive)
GI50 (KM12): > 100 µM (inactive)
GI50 (LOX IMVI): 4.05 µM (inactive)
GI50 (LXFL 529): > 100 µM (inactive)
GI50 (M14): > 100 µM (inactive)
GI50 (M19-MEL): > 100 µM (inactive)
GI50 (MOLT-4): > 100 µM (inactive)
GI50 (Malme-3M): > 100 µM (inactive)
GI50 (NCI-H226): > 100 µM (inactive)
GI50 (NCI-H23): > 100 µM (inactive)
GI50 (NCI-H522): > 100 µM (inactive)
GI50 (OVCAR-3): > 100 µM (inactive)
GI50 (OVCAR-8): > 100 µM (inactive)
GI50 (RPMI-8226): > 100 µM (inactive)
GI50 (RXF 393): > 100 µM (inactive)
GI50 (SF-295): > 100 µM (inactive)
GI50 (SF-539): > 100 µM (inactive)
GI50 (SK-MEL-28): > 100 µM (inactive)
GI50 (SK-MEL-5): > 100 µM (inactive)
GI50 (SK-OV-3): > 100 µM (inactive)
GI50 (SN12C): > 100 µM (inactive)
GI50 (SNB-19): > 100 µM (inactive)
GI50 (SNB-75): 88.9 µM (inactive)
GI50 (SNB-78): > 100 µM (inactive)
GI50 (SW-620): > 100 µM (inactive)
GI50 (TK-10): > 100 µM (inactive)
GI50 (U-251): > 100 µM (inactive)
GI50 (UACC-257): > 100 µM (inactive)
GI50 (UACC-62): > 100 µM (inactive)
GI50 (UO-31): > 100 µM (inactive)
